Values quoted from earlier work as cited in US8980299B2, “Method of making a vascular closure device” (Cordis Corporation, priority 2007, dated 2015).

Tested on: S. aureus
Details: suitable growth medium; Bhargava et al., Am J Infect Control, June 1996

Compound: Oc1cc(Cl)ccc1Oc1ccc(Cl)cc1Cl [2,4,4′-trichloro-2′hydroxydiphenyl ether, 2,4,4′-trichloro-2′-hydroxydiphenyl ether]
- minimum inhibitory concentration (MIC) against S. aureus: 0.01 ppm
